The target in one series is MEK1-CRAF complex (Homo sapiens (Human), UniProt Q02750). Briefly: Stabilization of MEK1-CRAF complex assay (AlphaLISA). Type of series: binding. On the procedure: MEK1 was diluted to 4 nM, and nickel chelate donor beads and glutathione acceptor beads were diluted to 80 μg/mL. CRAF was diluted to a top concentration of 160 nM, which was subsequently diluted to 80, 40, 20, 10, 5, 2.5, 1.25, and 0.625 nM through 1:2 serial dilution.
Exemplary MEK inhibitor compounds (0, 0.01, 0.1, or 1 μM) were added to a 384-AlphaPlate (PerkinElmer, 6008350) by a digital liquid dispenser (Tecan D300e) based on a total volume of 20 μL reaction mixture.
5 μL 4×MEK1 stock solution was added to wells A1-P20 by multichannel pipettes. The plate was sealed with clear olefin sealing tape (Thermo Scientific, 232701), centrifuged at 1000 rpm for 1 minute, and incubated at room temperature for 30 minutes.
5 μL 4×CRAF stock solution at different concentrations or 5 μL or 10 μL AlphaLISA buffer was added by multichannel pipettes. The plate was sealed, centrifuged at 1000 rpm for 1 minute, and incubated at room temperature for 60 minutes.
5 μL 4×glutathione acceptor beads were first added to all wells by multichannel pipettes. The ambient light was subsequently adjusted to <100 lux (light meter) before adding 5 μL 4×nickel chelate donor beads to the same wells. From this step on, the plate was covered with a black plate cover, centrifuged at 1000 rpm for 1 minute, and incubated at room temperature for 60 minutes.
Data were collected on a PHERAStar FSX (BMG LABTECH) using the AlphaLISA module (excitation: 680 nm, emission: 615 nm), with a gain of 3600. The excitation time was 0.30 seconds, and data collection started after a 0.04-second delay for a total integration time of 0.60 seconds.
The individual AlphaLISA counts of wells with exemplary MEK inhibitor compound were divided by the average AlphaLISA counts of wells without compound to obtain AlphaLISA signal/background ratio (S/B). The dissociation constant (KD) of MEK1-CRAF was calculated using nonlinear regression curve fit in GraphPad PRISM® 9.0 software.
(Bead proximity is the source of the signal in Alpha formats.)

Series [1] has as its system Phosphorylation of ERK1/2 in AsPC1 cells. Briefly: 4 hour pERK1/2 HTRF Assay. Type of series: cell-based. The settings on record: Homo sapiens, ASPC1, read-out: pERK AsPC-1 HTRF (4 hour): Average IC50 (nM); AsPC-1, 4 hour. On the procedure: AsPC1 cells were seeded at 20,000 cells/well overnight in 96-well plates, then treated with a 12-point dose response of compounds (Starting dose of 3000 nM and 3-fold dilution) for 4 hours. AsPC1 cells are a K-Ras mutant cell line. Phosphorylation of ERK1/2 on residues Thr202 and Tyr204 were detected using a Homogenous Time-Resolved Fluorescence (HTRF) assay (Cisbio Cat #64ERKPEG). Briefly, ERK phosphorylation was detected using a sandwich assay format using two phospho-ERK specific antibodies, one labelled with EU^3+-Cryptate (donor) and the second with d2 (acceptor). The Fluorescence Resonance Energy Transfer (FRET) towards the d2 acceptor was detected at a wavelength of 665 nm. ERK1/2 phosphorylation levels were normalized to total ERK1/2 protein levels in each well. IC50 values were determined by fitting a variable slope, four parameters curve to the compound concentration to normalized Phospho-ERK1/2 relationship.
In general terms: In TR-FRET formats the signal depends on donor and acceptor labels being close together.

The nature of series [2]: Cassette pharmacokinetics studies in mice. The settings on record: male, Balb/c, plasma; Mouse, PO, 5 mg/kg. In kind it is in vivo. The procedure:
Pharmacokinetics studies were conducted using cassette dosing protocols, with test compounds administered per mouse. Treatment groups were 3 mice (˜6-8 weeks old, ˜20-30 g Balb/c male mice) per route of administration. Compounds were formulated in 5% DMSO and 95% PEG400 with final concentrations of 0.5 mg/mL for IV and PO dosing. Compounds were dosed at 2 mg/kg for IV dosing and 5 mg/kg for PO dosing. Blood samples were withdrawn at 0.083, 0.25, 0.5, 1.0, 2.0, 4.0, 6.0, 8.0, and 24 hours following IV dosing, and 0.25, 0.5, 1.0, 2.0, 4.0, 6.0, 8.0, and 24 hours following PO dosing. Blood samples were centrifuged at 4,000 g for 5 minutes at 4° C. to obtain plasma samples. Plasma samples were diluted with acetonitrile containing internal standard, vortexed for 30 seconds, then centrifuged at 4,000 rpm for 15 minutes at 4° C. The supernatant was diluted with water, and compound concentration was determined by HPLC/MS/MS compared to calibration standards of 0.5-1,000 ng/mL.
Where route is listed as “IV*”, the compound was dosed IV at 1 mg/kg.

Another series concerns the target uMEK/BRAF (Homo sapiens (Human), UniProt Q02750). Briefly: MEK-RAF Binding Assay (uMEK/BRAF HTRF).
The next series deals with pERK HCT-116 (G13D). Briefly: pERK HCT-116 (G13D) ICW (4 hour). Type of series: cell-based. The settings on record: Homo sapiens, read-out: pERK HCT-116 (G13D) ICW (4 hour): Average IC50 (nM).

A value given as a limit tells only on which side of the number the result lay.

Sequence of uMEK/BRAF (Q02750 whole entry): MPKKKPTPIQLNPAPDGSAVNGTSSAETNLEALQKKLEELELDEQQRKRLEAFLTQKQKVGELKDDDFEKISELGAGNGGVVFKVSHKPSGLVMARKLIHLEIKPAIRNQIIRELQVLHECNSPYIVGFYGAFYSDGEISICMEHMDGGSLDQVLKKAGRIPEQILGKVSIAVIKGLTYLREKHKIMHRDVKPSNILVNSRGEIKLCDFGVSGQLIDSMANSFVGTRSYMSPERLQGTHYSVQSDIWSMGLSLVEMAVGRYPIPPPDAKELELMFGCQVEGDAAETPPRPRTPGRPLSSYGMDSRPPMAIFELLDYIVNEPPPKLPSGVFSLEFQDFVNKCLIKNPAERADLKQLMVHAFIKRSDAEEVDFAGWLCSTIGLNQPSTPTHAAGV
Sequence of MEK1-CRAF complex (Q02750 whole entry, looked up): as the sequence (Q02750 whole entry) above
Sequence of MEK1-CRAF complex (P04049 whole entry partner, looked up): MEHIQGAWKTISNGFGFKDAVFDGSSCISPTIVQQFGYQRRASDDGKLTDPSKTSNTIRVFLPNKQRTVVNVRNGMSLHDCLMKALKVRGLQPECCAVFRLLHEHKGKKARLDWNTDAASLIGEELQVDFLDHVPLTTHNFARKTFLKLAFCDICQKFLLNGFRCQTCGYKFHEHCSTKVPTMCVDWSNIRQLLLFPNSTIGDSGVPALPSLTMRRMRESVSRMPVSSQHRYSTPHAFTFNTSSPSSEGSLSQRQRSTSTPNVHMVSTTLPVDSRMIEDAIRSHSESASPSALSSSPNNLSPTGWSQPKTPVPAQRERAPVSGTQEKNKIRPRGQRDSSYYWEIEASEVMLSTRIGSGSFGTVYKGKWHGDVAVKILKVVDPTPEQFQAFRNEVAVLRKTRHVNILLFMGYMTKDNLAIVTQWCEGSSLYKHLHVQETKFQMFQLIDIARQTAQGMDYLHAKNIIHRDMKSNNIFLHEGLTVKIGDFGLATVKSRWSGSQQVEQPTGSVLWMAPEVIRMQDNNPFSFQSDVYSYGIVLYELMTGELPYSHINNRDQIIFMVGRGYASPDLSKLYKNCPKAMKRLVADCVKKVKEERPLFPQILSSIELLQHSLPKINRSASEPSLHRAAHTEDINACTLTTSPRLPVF

Usually IC50 stands for the concentration that inhibits the measured activity by half. In general, AUC(0-inf) refers to total exposure, with the tail of the curve extrapolated. A low value points to low exposure. What is called AUC(0-t) is the area under the concentration-time curve up to a stated or last time point. Lower therefore signals less exposure. For orientation: Cmax means the maximum level reached in the sampled fluid or tissue. For orientation: Tmax means the time from dosing to the highest level. Usually half-life stands for the time in which the quantity being followed falls by half. Lower therefore signals rapid decline. Take `CNS(=O)(=O)Nc1cccc(Oc2c(C(=O)NC3CC3)c(Nc3ccc(I)cc3F)n(C)c(=O)c2C)c1OC(F)(F)F` [Compound I-40]: the “KD Ratio (mean), compound to DMSO” value at MEK1-CRAF complex (compound 0.01 μM) is recorded as 0.87. Also, on MEK1-CRAF complex (compound 0.1 μM), the “KD Ratio (mean), compound to DMSO” value turned out to be 0.62. Moreover, the “KD Ratio (mean), compound to DMSO” value at MEK1-CRAF complex (compound 1 μM) was determined as 0.47. Also, the IC50 in series [1] is less than 100 nM. Also, in series [2], the AUC(0-inf) is 2940 ng·h/mL, the AUC(0-t) came out at 2750 ng·h/mL, the Cmax is 783 ng/mL and the Tmax came out at 0.8 h. The compound further gave a half-life in series [2] of 1.82 h.
For `CCNS(=O)(=O)Nc1cccc(Oc2c(C(=O)NC3CC3)c(Nc3ccc(I)cc3F)n(C)c(=O)c2C)c1Cl` [Compound I-43], the “KD Ratio (mean), compound to DMSO” value at MEK1-CRAF complex (compound 0.01 μM) worked out at 0.69. Also, the “KD Ratio (mean), compound to DMSO” value on MEK1-CRAF complex (compound 0.1 μM) was 0.52. Moreover, at MEK1-CRAF complex (compound 1 μM), the “KD Ratio (mean), compound to DMSO” value is reported as 0.51. For the same compound, the IC50 in series [1] was less than 100 nM. The compound also registered an IC50 at uMEK/BRAF of less than 100 nM. Further, in series [2], the AUC(0-inf) was found to be 803 ng·h/mL, the AUC(0-t) amounted to 763 ng·h/mL, the Cmax amounted to 488 ng/mL and the Tmax stood at 0.3 h. For the same compound, the half-life in series [2] was 3.92 h.
In the case of `Cc1c(Oc2cccc(NS(N)(=O)=O)c2)c(C(=O)NC2CC2)c(Nc2ccc(I)cc2F)n(C)c1=O` [Compound I-6], the IC50 on uMEK/BRAF and in the series with pERK HCT-116 (G13D) was less than 100 nM throughout.
On to `CNS(=O)(=O)Nc1ccc(OC)c(Oc2c(C(=O)NC3CC3)c(Nc3ccc(I)cc3F)n(C)c(=O)c2C)c1` [Compound I-26], for which the IC50 at uMEK/BRAF and in the series on pERK HCT-116 (G13D) was 1000 to 10000 nM throughout.
As for `Cc1c(Nc2ccc3c(c2)CNS(=O)(=O)N3)c(C(=O)NC2CC2)c(Nc2ccc(I)cc2F)n(C)c1=O` [Compound I-62], the IC50 on uMEK/BRAF and in the series with pERK HCT-116 (G13D) was less than 100 nM throughout.
Regarding `CCNC(=O)c1c(Oc2cccc(NS(=O)(=O)NC)c2Cl)c(C)c(=O)n(C)c1Nc1ccc(I)cc1F` [Compound I-54], the “KD Ratio (mean), compound to DMSO” value on MEK1-CRAF complex (compound 0.01 μM) came out at 0.58. For the same compound, the “KD Ratio (mean), compound to DMSO” value on MEK1-CRAF complex (compound 0.1 μM) is recorded as 0.36. The “KD Ratio (mean), compound to DMSO” value on MEK1-CRAF complex (compound 1 μM) is listed as 0.35. In addition, in series [2], the AUC(0-inf) was 4540 ng·h/mL, the AUC(0-t) was 4390 ng·h/mL, the peak level (Cmax) was 1670 ng/mL and the Tmax amounted to 0.5 h. Further, the half-life in series [2] was 1.6 h.
In the case of `CNS(=O)(=O)Nc1cccc(Oc2c(C(=O)NCC(F)(F)F)c(Nc3ccc(I)cc3F)n(C)c(=O)c2C)c1Cl` [Compound I-45], the “KD Ratio (mean), compound to DMSO” value on MEK1-CRAF complex (compound 0.01 μM) is listed as 0.62; at MEK1-CRAF complex (compound 0.1 μM), 0.42; on MEK1-CRAF complex (compound 1 μM), 0.38. In addition, the IC50 (in series [1]; at uMEK/BRAF) was less than 100 nM in each case.
Consider `Cc1c(Oc2ccc3c(c2)NS(=O)(=O)NC3)c(C(=O)NC2CC2)c(Nc2ccc(I)cc2F)n(C)c1=O` [Compound I-13], for which the IC50 at uMEK/BRAF and in the series on pERK HCT-116 (G13D) was 100 to 1000 nM each time.
Regarding `CNS(=O)(=O)Nc1cc(F)cc(Oc2c(C(=O)NC3CC3)c(Nc3ccc(I)cc3F)n(C)c(=O)c2C)c1` [Compound I-10], the IC50 on uMEK/BRAF and with pERK HCT-116 (G13D) was less than 100 nM each time.
With `CNS(=O)(=O)Nc1cccc(Oc2c(C(=O)N(C)C3CC3)c(Nc3ccc(I)cc3F)n(C)c(=O)c2C)c1C` [Compound I-24], the results for the IC50 on uMEK/BRAF and in the series with pERK HCT-116 (G13D) were 1000 to 10000 nM and 100 to 1000 nM, respectively.
Take `Cc1c(Oc2cccc(CS(N)(=O)=O)c2)c(C(=O)NC2CC2)c(Nc2ccc(I)cc2F)n(C)c1=O` [Compound I-16]: the IC50 at uMEK/BRAF and in the series with pERK HCT-116 (G13D) was 100 to 1000 nM in each case.
Regarding `CNS(=O)(=O)Nc1cc(Oc2c(C(=O)NC3CC3)c(Nc3ccc(I)cc3F)n(C)c(=O)c2C)ccc1F` [Compound I-15], the IC50 on uMEK/BRAF and with pERK HCT-116 (G13D) was 100 to 1000 nM each time.
Regarding `CNS(=O)(=O)Nc1cccc(Oc2c(C(=O)NC3CC3)c(Nc3ccc(I)cc3F)n(C)c(=O)c2C)c1F` [Compound I-4, N-cyclopropyl-4-{2-fluoro-3-[(methylsulfamoyl)amino]phenoxy}-2-[(2-fluoro-4-iodophenyl)amino]-1,5-dimethyl-6-oxopyridine-3-carboxamide], the IC50 on uMEK/BRAF and in the series with pERK HCT-116 (G13D) was less than 100 nM in each case.
As for `CNS(=O)(=O)Nc1cccc(Oc2c(C(=O)NC3CC3)c(Nc3ccc(I)cc3F)n(C)c(=O)c2C)c1` [Compound I-5, N-cyclopropyl-2-((2-fluoro-4-iodophenyl)amino)-1,5-dimethyl-4-(3-((N-methylsulfamoyl)amino)phenoxy)-6-oxo-1,6-dihydropyridine-3-carboxamide], the IC50 on uMEK/BRAF and with pERK HCT-116 (G13D) was less than 100 nM each time.
`CNS(=O)(=O)n1ccc2c(Oc3c(C(=O)NC4CC4)c(Nc4ccc(I)cc4F)n(C)c(=O)c3C)cccc21` [Compound I-12]: the IC50 on uMEK/BRAF was less than 100 nM; in the series with pERK HCT-116 (G13D), 1000 to 10000 nM.
`CNS(=O)(=O)Nc1cccc(Oc2c(C(=O)NC(C)C)c(Nc3ccc(I)cc3F)n(C)c(=O)c2C)c1Cl` [Compound I-41]: the “KD Ratio (mean), compound to DMSO” value at MEK1-CRAF complex (compound 0.01 μM) is 0.79. Besides, the “KD Ratio (mean), compound to DMSO” value at MEK1-CRAF complex (compound 0.1 μM) is recorded as 0.57. In addition, the “KD Ratio (mean), compound to DMSO” value at MEK1-CRAF complex (compound 1 μM) was found to be 0.48. Besides, in series [2], the AUC(0-inf) was 3470 ng·h/mL, the AUC(0-t) came out at 3340 ng·h/mL, the peak level (Cmax) was 1260 ng/mL and the Tmax stood at 0.5 h. The half-life in series [2] is 1.62 h.
`Cc1c(Oc2cccc(N=S(C)(N)=O)c2)c(C(=O)NC2CC2)c(Nc2ccc(I)cc2F)n(C)c1=O` (stereo in doubt) [Compound I-7, (S)-4-(3-((amino(methyl)oxo-lambda6-sulfaneylidene)amino)phenoxy)-N-cyclopropyl-2-((2-fluoro-4-iodophenyl)amino)-1,5-dimethyl-6-oxo-1,6-dihydropyridine-3-carboxamide]: the IC50 at uMEK/BRAF and in the series with pERK HCT-116 (G13D) was less than 100 nM throughout.
On to `CNS(=O)(=O)Nc1cccc(Oc2c(C(=O)NC3CC3)c(Nc3ccc(I)cc3F)n(C)c(=O)c2C)c1C` [Compound I-3], for which the IC50 at uMEK/BRAF and in the series with pERK HCT-116 (G13D) was less than 100 nM throughout.
In the case of `COCCNS(=O)(=O)Nc1cccc(Oc2c(C(=O)NC3CC3)c(Nc3ccc(I)cc3F)n(C)c(=O)c2C)c1Cl` [Compound I-55], the “KD Ratio (mean), compound to DMSO” value on MEK1-CRAF complex (compound 0.01 μM) was 0.76. Further, the “KD Ratio (mean), compound to DMSO” value on MEK1-CRAF complex (compound 0.1 μM) worked out at 0.58. The “KD Ratio (mean), compound to DMSO” value at MEK1-CRAF complex (compound 1 μM) is listed as 0.51. In addition, the IC50 in series [1] is less than 100 nM. Besides, at uMEK/BRAF, the IC50 is less than 100 nM. In series [2], the AUC(0-inf) came to 1090 ng·h/mL, the AUC(0-t) turned out to be 1090 ng·h/mL, the concentration peaked (Cmax) at 801 ng/mL and the Tmax was 0.4 h. Besides, the half-life in series [2] was 1.58 h.
